Test results reported in US11130769B2 (Prelude Therapeutics Incorporated, priority 2018, dated 2021).
Where “and” joins values, the source holds several entries; their conditions need not be identical. Equal entries are not always repeated. Where two headings read alike, the source gives them in different places.

Legend:
[1] = not given; remark: listed apart in the source
MCL-1 = MCL-1 (Homo sapiens (Human), UniProt Q07820); assay: Cell free Mcl-1:Bim affinity assay (fluorescence polarization competition); format: binding; conditions: 15 nM MCL-1, 5 nM FITC-Bim, 1 hour at room temperature, read-out: BIM_Ki
Procedure, shortened: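 Compounds competed with FITC-labelled Bim peptide (5 nM) for MCL-1 (15 nM) in HEPES/NaCl buffer with 1% DMSO, 1 h at room temperature. Fluorescence polarization (535 nm emission) gave % inhibition versus DMSO and positive controls; IC50 from 10-point curves, converted to Ki by the Nikolovska-Coleska equation.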

H929 cells = assay: Cell viability assay (H929 10 FBS); format: cell-based; conditions: read-out: H929_10FBS IC50
Procedure, shortened: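 H929 cells, 4000/well, in RPMI 1640 with 10% FBS, sodium pyruvate, HEPES and glucose were exposed to compound 24 h at 37 °C. Viability read as luminescence after 30-60 min at RT with CellTiter-Glo or ATPlite 1 Step.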

[2] = from C=CC(C)OC(C)(C)C(=O)NS(=O)(=O)c1ccc2c(c1)N(C[C@@H]1CC[C@H]1[C@@H](O)C=C)C[C@@]1(CCCc3cc(Cl)ccc31)CO2, rcm bond, 16-membered ring, Zhan catalyst, DCE, 2.1 mM, 45.0 °C, 2.0 h
[3] = from C=CCN(C(=O)OC(C)(C)C)[C@H](C)C(=O)NS(=O)(=O)c1ccc2c(c1)N(C[C@@H]1CC[C@H]1[C@@H](O)C=C)C[C@@]1(CCCc3cc(Cl)ccc31)CO2, rcm bond, 16-membered ring, Zhan Catalyst 1B, DCE, 1.8 mM, 40.0 °C, 3.0 h
[4] = Homo sapiens, NCI-H929, 24 hours

MCL-1, sequence (Q07820 whole entry): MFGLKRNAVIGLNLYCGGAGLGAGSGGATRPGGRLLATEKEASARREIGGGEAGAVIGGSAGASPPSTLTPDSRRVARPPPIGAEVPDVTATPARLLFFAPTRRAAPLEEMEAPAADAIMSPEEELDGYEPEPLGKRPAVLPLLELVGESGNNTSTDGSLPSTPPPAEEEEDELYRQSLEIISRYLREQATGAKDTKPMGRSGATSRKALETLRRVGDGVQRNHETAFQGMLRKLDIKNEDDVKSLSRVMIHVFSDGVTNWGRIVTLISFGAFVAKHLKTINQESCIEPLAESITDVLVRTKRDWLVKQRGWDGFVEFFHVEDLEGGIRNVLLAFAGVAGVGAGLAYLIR

Ki (MCL-1; class symbols) [nM] | IC50 (H929 cells; [4]) [nM] | Compound | further results
 |  | CC(C)(C)OC(=O)N1CC=C[C@H](O)[C@@H]2CC[C@H]2CN2C[C@@]3(CCCc4cc(Cl)ccc43)COc3ccc(cc32)S(=O)(=O)NC(=O)C12CCC2 | ring closure, isolated yield (from C=CCN(C(=O)OC(C)(C)C)C1(C(=O)NS(=O)(=O)c2ccc3c(c2)N(C[C@@H]2CC[C@H]2[C@@H](O)C=C)C[C@@]2(CCCc4cc(Cl)ccc42)CO3)CCC1, rcm bond, 16-membered ring, Zhan Catalyst II (resin supported), DCE, 1.0 mM, 60.0 °C, 3.0 h): 93%
 |  | CC1(C)OC/C=C/[C@](C)(O)[C@@H]2CC[C@H]2CN2C[C@@]3(CCCc4cc(Cl)ccc43)COc3ccc(cc32)S(=O)(=O)NC1=O | ring closure, yield after HPLC ([1]; from C=CCOC(C)(C)C(=O)NS(=O)(=O)c1ccc2c(c1)N(C[C@@H]1CC[C@H]1[C@@](C)(O)C=C)C[C@@]1(CCCc3cc(Cl)ccc31)CO2, rcm bond, 16-membered ring, Zhan catalyst, DCE, 1.6 mM, 45.0 °C, 2.0 h): 3.3%
 |  | CC1/C=C/[C@H](O)[C@@H]2CC[C@H]2CN2C[C@@]3(CCCc4cc(Cl)ccc43)COc3ccc(cc32)S(=O)(=O)NC(=O)C(C)(C)O1 (stereo partly shown) | ring closure, isolated yield [2]: 62.4%
 |  | CC1/C=C\[C@H](O)[C@@H]2CC[C@H]2CN2C[C@@]3(CCCc4cc(Cl)ccc43)COc3ccc(cc32)S(=O)(=O)NC(=O)C(C)(C)O1 (stereo partly shown) | ring closure, isolated yield [2]: 15.2%
 |  | CO[C@@H]1C=CCN(C(=O)OC(C)(C)C)CC2(CCC2)C(=O)NS(=O)(=O)c2ccc3c(c2)N(C[C@@H]2CC[C@H]21)C[C@@]1(CCCc2cc(Cl)ccc21)CO3 | ring closure, isolated yield (from C=CCN(CC1(C(=O)NS(=O)(=O)c2ccc3c(c2)N(C[C@@H]2CC[C@H]2[C@@H](C=C)OC)C[C@@]2(CCCc4cc(Cl)ccc42)CO3)CCC1)C(=O)OC(C)(C)C, rcm bond, 17-membered ring, Hoveyda-Grubbs II, DCE, 2.6 mM, 16.0 h): 80%
 |  | CO[C@@H]1C=CCNC(=O)NS(=O)(=O)c2ccc3c(c2)N(C[C@@H]2CC[C@H]21)C[C@@]1(CCCc2cc(Cl)ccc21)CO3 | ring closure, yield after HPLC ([1]; from C=CCNC(=O)NS(=O)(=O)c1ccc2c(c1)N(C[C@@H]1CC[C@H]1[C@@H](C=C)OC)C[C@@]1(CCCc3cc(Cl)ccc31)CO2, rcm bond, 15-membered ring, Hoveyda-Grubbs II, DCE, 1.0 mM, 80.0 °C, 16.0 h): 7.2% and 31%
 |  | C[C@@H]1C(=O)NS(=O)(=O)c2ccc3c(c2)N(C[C@@H]2CC[C@H]2[C@@H](O)/C=C/CN1C(=O)OC(C)(C)C)C[C@@]1(CCCc2cc(Cl)ccc21)CO3 | ring closure, isolated yield [3]: 44%
 |  | C[C@@H]1C(=O)NS(=O)(=O)c2ccc3c(c2)N(C[C@@H]2CC[C@H]2[C@@H](O)C=CCN1C(=O)OC(C)(C)C)C[C@@]1(CCCc2cc(Cl)ccc21)CO3 | ring closure, isolated yield [3]: 36%
 |  | O=C1NS(=O)(=O)c2ccc3c(c2)N(C[C@@H]2CC[C@H]2[C@@H](O)C=CCOC12CCC2)C[C@@]1(CCCc2cc(Cl)ccc21)CO3 | ring closure, isolated yield (from C=CCOC1(C(=O)NS(=O)(=O)c2ccc3c(c2)N(C[C@@H]2CC[C@H]2[C@@H](O)C=C)C[C@@]2(CCCc4cc(Cl)ccc42)CO3)CCC1, rcm bond, 16-membered ring, Hoveyda-Grubbs II, DCE, 1.46 mM, 40.0 °C, 2.0 h): 66.3%
1 to 100 | > 1000 | O=C1CC/C=C/COC[C@@H]2CC[C@H]2CN2C[C@@]3(CCCc4cc(Cl)ccc43)COc3ccc(cc32)S(=O)(=O)N1 [Example 99, (3R,6R,10E,23S)-6′-Chloro-16,16-dioxo-spiro[8,21-dioxa-16-thia-1,15-diazatetracyclo[15.7.2.03,6.020,25]hexacosa-10,17(26),18,20(25)-tetraene-23,1′-tetralin]-14-one] | ring closure, isolated yield (from C=CCCC(=O)NS(=O)(=O)c1ccc2c(c1)N(C[C@@H]1CC[C@H]1COCC=C)C[C@@]1(CCCc3cc(Cl)ccc31)CO2, rcm bond, 17-membered ring, Hoveyda-Grubbs II, DCM, 16.7 mM, 24.0 h): 51%
< 1 | > 1000 | O=C1Cc2cncc(c2)OC[C@@H]2CC[C@H]2CN2C[C@@]3(CCCc4cc(Cl)ccc43)COc3ccc(cc32)S(=O)(=O)N1 [Example 104, (3R,6R,24S)-6′-Chloro-17,17-dioxo-spiro[8,22-dioxa-17-thia-1,11,16-triazapentacyclo[16.7.2.19,13.03,6.021,26]octacosa-9(28),10,12,18(27),19,21(26)-hexaene-24,1′-tetralin]-15-one] | ring closure, isolated yield (from NS(=O)(=O)c1ccc2c(c1)N(C[C@@H]1CC[C@H]1COc1cncc(CC(=O)O)c1)C[C@@]1(CCCc3cc(Cl)ccc31)CO2, amide bond, 16-membered ring, EDCI/DMAP, DCM/DMF 9:1, 12.0 mM, 16.0 h): 28%
1 to 100 | > 1000 | CN1CCOC(C)(C)C(=O)NS(=O)(=O)c2ccc3c(c2)N(C[C@@H]2CC[C@H]2C1=O)C[C@@]1(CCCc2cc(Cl)ccc21)CO3 [Example 110, (3R,6R,22S)-6′-Chloro-8,12,12-trimethyl-15,15-dioxo-spiro[11,20-dioxa-thia-1,8,14-triazatetracyclo[14.7.2.03,6.019,24]pentacosa-16(25),17,19(24)-triene-22,1′-tetralin]-7,13-dione] | ring closure, yield after HPLC ([1]; from CNCCOC(C)(C)C(=O)NS(=O)(=O)c1ccc2c(c1)N(C[C@@H]1CC[C@H]1C(=O)O)C[C@@]1(CCCc3cc(Cl)ccc31)CO2, amide bond, 16-membered ring, HATU/DIEA, DMF, 6.0 mM, 20.0 °C, 1.0 h): 25%
< 1 | < 500 | CN(C(=O)O[C@H]1/C=C/COC(C)(C)C(=O)NS(=O)(=O)c2ccc3c(c2)N(C[C@@H]2CC[C@H]21)C[C@@]1(CCOc2cc(Cl)ccc21)CO3)C1CCOCC1 [Example 304, [(3R,6R,7S,8E,22S)-7′-Chloro-12,12-dimethyl-13,15,15-trioxo-spiro[11,20-dioxa-15-thia-1,14-diazatetracyclo[14.7.2.03,6.019,24]pentacosa-8,16,18,24-tetraene-22,4′-chromane]-7-yl] N-methyl-N-tetrahydropyran-4-yl-carbamate] | 
< 1 | < 500 | CC1(C)OC/C=C/[C@H](OC(=O)NC2CCOCC2)[C@@H]2CC[C@H]2CN2C[C@@]3(CCOc4cc(Cl)ccc43)COc3ccc(cc32)S(=O)(=O)NC1=O [Example 305, [(3R,6R,7S,8E,22S)-7′-Chloro-12,12-dimethyl-13,15,15-trioxo-spiro[11,20-dioxa-15-thia-1,14-diazatetracyclo[14.7.2.03,6.019,24]pentacosa-8,16,18,24-tetraene-22,4′-chromane]-7-yl] N-tetrahydropyran-4-yl-carbamate] | 
< 1 | < 500 | CON(C)C(=O)O[C@H]1/C=C/COC(C)(C)C(=O)NS(=O)(=O)c2ccc3c(c2)N(C[C@@H]2CC[C@H]21)C[C@@]1(CCOc2cc(Cl)ccc21)CO3 [Example 306, [(3R,6R,7S,8E,22S)-7′-Chloro-12,12-dimethyl-13,15,15-trioxo-spiro[11,20-dioxa-15-thia-1,14-diazatetracyclo[14.7.2.03,6.019,24]pentacosa-8,16,18,24-tetraene-22,4′-chromane]-7-yl] N-methoxy-N-methyl-carbamate] | 
< 1 | < 500 | [2H]C1([2H])/C=C/[C@H](OC(=O)N(C)C)[C@@H]2CC[C@H]2CN2C[C@@]3(CCCc4cc(Cl)ccc43)COc3ccc(cc32)S(=O)(=O)NC(=O)C(C)(C)O1 [Example 312, [(3R,6R,7S,8E,22S)-6′-Chloro-10,10-dideuterio-12,12-dimethyl-13,15,15-trioxo-spiro[11,20-dioxa-15-thia-1,14-diazatetracyclo[14.7.2.03,6.019,24]pentacosa-8,16,18,24-tetraene-22,1′-tetralin]-7-yl] N,N-dimethylcarbamate] | 
 |  | (4′Z,5′E)-6-Chloro-3,4-dihydro-2H-spiro[naphthalene-1,3′-13-thia-12-aza-1(5,7)-benzo[b][1,4]oxazepina-3(4,1)-pyrazolacyclotridecaphanen]-5′-en-11′-one 13′,13′-dioxide and (4′Z,5′Z)-6-chloro-3,4-dihydro-2H-spiro[naphthalene-1,3′-13-thia-12-aza-1(5,7)-benzo[b][1,4]oxazepina-3(4,1)-pyrazolacyclotridecaphanen]-5′-en-11′-one 13′,13′-dioxide [Example 11] | Ki (MCL-1; numeric values): 503 nM; IC50 (H929 cells; 24 hours): > 1000 nM

Compound | Ki (MCL-1; class symbols) [nM] | IC50 (H929 cells; [4]) [nM] | further results
CO[C@@H]1/C=C/CCNC(=O)NS(=O)(=O)c2ccc3c(c2)N(C[C@@H]2CC[C@H]21)C[C@@]1(CCCc2cc(Cl)ccc21)CO3 [Example 106, (3R,6R,7R,8E,22S)-6′-Chloro-7-methoxy-15,15-dioxo-spiro[20-oxa-15-thia-1,12,14-triazatetracyclo[14.7.2.03,6.019,24]pentacosa-8,16,18,24-tetraene-22,1′-tetralin]-13-one] | 1 to 100 | < 1000 | ring closure, yield after HPLC ([1]; from C=CCCNC(=O)NS(=O)(=O)c1ccc2c(c1)N(C[C@@H]1CC[C@H]1[C@@H](C=C)OC)C[C@@]1(CCCc3cc(Cl)ccc31)CO2, rcm bond, 16-membered ring, Hoveyda-Grubbs II, DCE, 1.5 mM, 80.0 °C, 16.0 h): 43%
